This is an account of results in PMC10254914, “Targeting Transcriptional CDKs 7, 8, and 9 with Anilinopyrimidine Derivatives as Anticancer Agents: Design, Synthesis, Biological Evaluation and In Silico Studies” (Molecules, 2023).

Molecules are shown by their SMILES.

In data set [1] the target is T1, CDK9/CycT1 (Homo sapiens, UniProt P50750). As to the kind of experiment: Ligand efficiency and ligand lipophilic efficiency (DataWarrior). To be noted: for LE: LE=−RTlnIC50/N; for LLE: LLE=pIC50−clogP. The method, then: Ligand efficiency is an important parameter that is widely used in the development of drug measures to quantify the molecular properties, particularly the size and lipophilicity of small molecules, required to gain binding affinity to a drug target. The LE values of the synthesized compounds were measured using DataWarrior employing the following equation [48]: LE=−RTlnIC50/N where R is the universal gas constant, T is the absolute temperature in Kelvin, and N represents the number of heavy atoms, that is, non-hydrogen atoms in the drug.
LE is widely used for the selection and optimization of fragments, hits, and leads. […] Compounds with LE values higher than 0.3 are promising lead compounds.
In drug discovery and development, it is challenging to optimize the compound activity while maintaining a constant lipophilicity. As a result, LLE is an effective approach to control molecule lipophilicity to evade any “molecular obesity” through lead optimization. These were obtained via DataWarrior, according to the following equation [50]: LLE=pIC50−clogP
An acceptable lead compound should have an LLE value ≥5. As depicted in Table 6, 5j has acceptable LLE values. However, other compounds have values below the recommended limit.

The test system of data set [2] is HeLa (cervical epithelioid carcinoma). As to the kind of experiment: MTT antiproliferative assay, HeLa. Particulars: Homo sapiens, read-out: IC50 (µM) HeLa. Background: Tetrazolium dyes change colour on reduction, which living cells bring about.
From the text: (§1) The cell lines mentioned above were used to determine the inhibitory effects of the compounds on cell growth using the MTT assay.
Data set [3] concerns MCF7 (mammary gland breast cancer). The data set is described as follows: MTT antiproliferative assay, MCF7. Particulars: Homo sapiens, MCF7, read-out: IC50 (µM) MCF7.
From the text: as §1
Data set [4] concerns HepG2 (hepatocellular carcinoma). As to the kind of experiment: MTT antiproliferative assay, HepG2. To be noted: Homo sapiens, HepG2, read-out: IC50 (µM) HepG2.
From the text: as §1
Data set [5] has as its system HCT116 (colorectal carcinoma). The data set is described as follows: MTT antiproliferative assay, HCT116. To be noted: Homo sapiens, HCT-116, read-out: IC50 (µM) HCT116.
From the text: as §1
For a further data set, the target named is CDK7/CycT1 (Homo sapiens, UniProt P50613). As to the kind of experiment: In vitro CDK7 enzyme inhibition assay.
The target of another data set is CDK8 (Homo sapiens, UniProt P49336). The data set is described as follows: In vitro CDK8 enzyme inhibition assay.
Data set [6] deals with normal fibroblast cell line, WI-38. As to the kind of experiment: MTT cytotoxicity in normal fibroblasts WI-38. To be noted: Homo sapiens, WI-38, read-out: IC50 (µM) WI-38.
Method: The MTT assay was performed to evaluate the in vitro antitumor activity of the synthesized 4-anilinoquinazolines according to a previously reported method [59, 60, 61, 62, 63].
Data set [7] has as its target T1, CDK9/CycT1. As to the kind of experiment: In vitro CDK9/cyclin T1 enzyme inhibition assay.
Method: (§2) The CDK enzyme assay was performed as previously described [63].
The test system of data set [8] is HCT116, HepG2, HeLa, MCF7 cancer cell lines. As to the kind of experiment: MTT assay, ranges over the cancer cell line panel. To be noted: Homo sapiens, read-out: IC50 range over the tested cancer cell lines.
From the text: as §1
Where [9] appears, read: pIC 50, from the CDK9 IC50 of Table 6.
Setting [10] is: IC50 (µM) CDK9/CycT1, dose-response curves, repeated in Table 6.

Broadly, the melting point is the temperature, or range, at which the solid turns liquid. Usually IC50 stands for the concentration that inhibits the measured activity by half.

Chain of CDK8 (P49336 whole entry): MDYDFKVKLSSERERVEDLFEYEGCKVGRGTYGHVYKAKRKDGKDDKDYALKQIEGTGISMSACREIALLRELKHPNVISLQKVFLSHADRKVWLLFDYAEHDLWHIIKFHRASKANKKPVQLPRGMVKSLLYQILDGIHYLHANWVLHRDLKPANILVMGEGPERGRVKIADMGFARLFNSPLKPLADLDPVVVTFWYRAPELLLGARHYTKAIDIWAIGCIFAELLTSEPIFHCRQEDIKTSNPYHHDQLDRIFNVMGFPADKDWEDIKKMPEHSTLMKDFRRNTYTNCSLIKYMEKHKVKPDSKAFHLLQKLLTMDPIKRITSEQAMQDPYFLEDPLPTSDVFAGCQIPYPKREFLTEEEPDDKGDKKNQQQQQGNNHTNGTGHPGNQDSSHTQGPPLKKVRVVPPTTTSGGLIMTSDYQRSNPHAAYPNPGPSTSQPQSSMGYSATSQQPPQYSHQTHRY
Chain of CDK8 (P24863 whole entry partner): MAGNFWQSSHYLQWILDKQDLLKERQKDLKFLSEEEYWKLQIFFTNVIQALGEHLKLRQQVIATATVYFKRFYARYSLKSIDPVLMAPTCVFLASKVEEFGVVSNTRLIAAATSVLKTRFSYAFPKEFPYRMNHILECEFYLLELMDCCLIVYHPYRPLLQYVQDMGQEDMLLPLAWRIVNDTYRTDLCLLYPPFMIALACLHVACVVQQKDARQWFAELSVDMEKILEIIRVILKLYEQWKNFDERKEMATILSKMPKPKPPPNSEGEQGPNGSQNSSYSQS
T1 sequence (P50750 whole entry, the tested form may be a part): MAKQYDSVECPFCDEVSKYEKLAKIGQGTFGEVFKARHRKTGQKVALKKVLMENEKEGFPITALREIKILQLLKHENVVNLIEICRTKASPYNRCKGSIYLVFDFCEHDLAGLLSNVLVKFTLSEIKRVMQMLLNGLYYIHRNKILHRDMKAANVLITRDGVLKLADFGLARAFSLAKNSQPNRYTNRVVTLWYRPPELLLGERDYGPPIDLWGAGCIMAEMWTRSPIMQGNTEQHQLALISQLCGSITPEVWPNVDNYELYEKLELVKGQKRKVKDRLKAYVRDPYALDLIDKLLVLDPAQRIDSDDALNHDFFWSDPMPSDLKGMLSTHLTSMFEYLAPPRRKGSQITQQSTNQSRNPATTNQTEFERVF
T1 sequence (O60563 whole entry partner, the tested form may be a part): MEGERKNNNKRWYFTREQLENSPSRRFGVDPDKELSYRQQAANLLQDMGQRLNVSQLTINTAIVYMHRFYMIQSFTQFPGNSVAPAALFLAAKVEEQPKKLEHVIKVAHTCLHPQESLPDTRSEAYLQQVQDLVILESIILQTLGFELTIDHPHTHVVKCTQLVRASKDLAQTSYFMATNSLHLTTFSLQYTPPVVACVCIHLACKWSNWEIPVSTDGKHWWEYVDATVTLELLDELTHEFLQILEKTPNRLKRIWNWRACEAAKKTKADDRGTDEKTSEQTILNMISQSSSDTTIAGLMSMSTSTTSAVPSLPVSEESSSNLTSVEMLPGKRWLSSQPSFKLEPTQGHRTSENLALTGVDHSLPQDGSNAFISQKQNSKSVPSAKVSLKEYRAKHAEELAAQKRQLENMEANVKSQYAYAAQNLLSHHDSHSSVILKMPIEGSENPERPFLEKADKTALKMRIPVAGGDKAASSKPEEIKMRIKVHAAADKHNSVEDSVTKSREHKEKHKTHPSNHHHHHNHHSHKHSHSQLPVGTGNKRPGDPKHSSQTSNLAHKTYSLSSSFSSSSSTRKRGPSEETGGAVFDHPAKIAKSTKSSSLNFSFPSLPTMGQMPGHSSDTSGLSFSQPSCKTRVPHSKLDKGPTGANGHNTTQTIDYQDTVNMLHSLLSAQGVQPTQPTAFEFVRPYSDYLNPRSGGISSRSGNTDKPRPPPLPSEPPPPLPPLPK
Chain of CDK7/CycT1 (P50613 whole entry): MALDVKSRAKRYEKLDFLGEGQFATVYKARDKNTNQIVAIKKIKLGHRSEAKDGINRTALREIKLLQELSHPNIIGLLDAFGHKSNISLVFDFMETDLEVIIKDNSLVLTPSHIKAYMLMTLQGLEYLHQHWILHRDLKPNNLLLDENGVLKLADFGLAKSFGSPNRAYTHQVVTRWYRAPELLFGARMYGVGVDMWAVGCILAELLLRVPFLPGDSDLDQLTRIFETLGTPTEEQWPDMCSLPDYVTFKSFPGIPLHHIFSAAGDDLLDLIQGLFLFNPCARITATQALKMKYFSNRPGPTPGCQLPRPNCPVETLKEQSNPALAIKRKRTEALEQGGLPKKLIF
Chain of CDK7/CycT1 (P51946 whole entry partner): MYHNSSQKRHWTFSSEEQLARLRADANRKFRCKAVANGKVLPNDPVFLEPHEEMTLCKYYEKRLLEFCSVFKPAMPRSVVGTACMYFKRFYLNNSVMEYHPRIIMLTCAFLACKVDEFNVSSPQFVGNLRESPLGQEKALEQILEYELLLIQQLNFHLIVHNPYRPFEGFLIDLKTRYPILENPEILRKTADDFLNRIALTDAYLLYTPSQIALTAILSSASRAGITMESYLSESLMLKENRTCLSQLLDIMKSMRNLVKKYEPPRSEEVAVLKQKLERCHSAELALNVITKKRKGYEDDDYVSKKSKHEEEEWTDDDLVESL
Method for CDK7/CycT1: as §2
Method for CDK8: as §2

On to `NS(=O)(=O)c1cccc(Nc2nccc(-c3ccc(OC(F)(F)F)cc3)n2)c1` [Compound 5e, 3-((4-(4-(Trifluoromethoxy)phenyl)pyrimidin-2-yl)amino)benzenesulfonamide], for which the melting point lay within 252 to 254 °C. On CDK9/CycT1 [1], this molecule showed an LE of 0.3129 and an LLE of 2.7773. The IC50 in data set [2] turned out to be 38.8 ± 2.5 µM. Moreover, the IC50 in data set [3] came out at 74 ± 4.2 µM. Further, the IC50 in data set [4] turned out to be 81.3 ± 4.1 µM. The IC50 in data set [5] was determined as 56.6 ± 3.1 µM. The IC50 at CDK7/CycT1 is 1100 nM. For the same molecule, 1890 nM corresponded to half-maximal inhibition against CDK8 (IC50). Besides, the IC50 in [6] was determined as 64.3 ± 3.9 µM. This molecule gave a concentration for half-maximal inhibition (IC50) at CDK9/CycT1 [7] (setting [9]) of 0.149 µM.

`NS(=O)(=O)c1cccc(Nc2nccc(-c3cnccn3)n2)c1` [Compound 5j, 3-((4-(Pyrazin-2-yl)pyrimidin-2-yl)amino)benzenesulfonamide] displayed a melting point of 288 to 290 °C. Besides, on CDK9/CycT1 [1], the LE was 0.3867 and the LLE was 5.5526. Also, the IC50 in [2] came to 92.4 ± 4.8 µM. Besides, in [3], the half-inhibitory concentration (IC50) stood at 71.3 ± 4 µM. Besides, the IC50 in data set [4] was 85.3 ± 4.3 µM. In addition, the IC50 in data set [5] was above 100 µM. Besides, the IC50 at CDK7/CycT1 was determined as 1460 nM. The molecule also gave an IC50 against CDK8 of 4050 nM. Further, the IC50 in data set [6] amounted to 60.5 ± 3.7 µM. Half-maximal inhibition at CDK9/CycT1 [7] (setting [9]) (IC50) required 0.111 µM.

With `NS(=O)(=O)c1cccc(Nc2nccc(-c3ccc([N+](=O)[O-])cc3)n2)c1` [Compound 5g, 3-((4-(4-Nitrophenyl)pyrimidin-2-yl)amino)benzenesulfonamide], the melting point lay within 265 to 267 °C. Besides, at CDK9/CycT1 [1], the LE is recorded as 0.3393 and the LLE is recorded as 4.8413. Also, in data set [2], the IC50 came out at 42.6 ± 2.4 µM. For the same molecule, the IC50 in [3] is 68.2 ± 3.9 µM. The IC50 in data set [4] worked out at 84.6 ± 4.3 µM. Moreover, the IC50 in [5] came to 57.5 ± 3.4 µM. Also, the 50% inhibitory concentration (IC50) on CDK7/CycT1 is 1340 nM. This molecule returned an IC50 at CDK8 of 4190 nM. Also, the IC50 in data set [6] is 31.1 ± 2.3 µM. The molecule further returned an IC50 against CDK9/CycT1 [7] (setting [10]) of 1.74 µM.

In turn, `NS(=O)(=O)c1cccc(Nc2nccc(-c3ccccc3)n2)c1` [Compound 5a, 3-((4-Phenylpyrimidin-2-yl)amino)benzenesulfonamide] gave an LE at CDK9/CycT1 [1] of 0.3869. On CDK9/CycT1 [1], the LLE is 3.9758. For the same molecule, the IC50 in data set [2] was 11.5 ± 0.9 µM; in data set [3], 3.84 ± 0.2 µM; in data set [4] it was 7.84 ± 0.6 µM; in [5] it was 25.9 ± 1.8 µM; at CDK7/CycT1 it was 875 nM; against CDK8, 2300 nM. Also, the IC50 was 37.9 ± 2.5 µM in data set [6], 0.449 µM against CDK9/CycT1 [7] (setting [10]) and 1 to 10 µM in [8].

`NS(=O)(=O)c1cccc(Nc2nccc(-c3ccc(C(F)(F)F)cc3)n2)c1` [Compound 5d, 3-((4-(4-(Trifluoromethyl)phenyl)pyrimidin-2-yl)amino)benzenesulfonamide] displayed a melting point of 150 to 152 °C. At CDK9/CycT1 [1], this molecule displayed an LE of 0.3254 and an LLE of 3.0453. Moreover, the IC50 in [2] amounted to 22.2 ± 1.7 µM. Besides, in data set [3], the IC50 was determined as 8.72 ± 0.7 µM. Further, in [4], the IC50 came out at 11.7 ± 1 µM. In [5], the IC50 came out at 33.8 ± 2.2 µM. Also, the IC50 against CDK7/CycT1 came out at 661 nM. On CDK8, the half-inhibitory concentration (IC50) was 716 nM. Also, in data set [6], the IC50 turned out to be 51.9 ± 3.1 µM. The molecule also showed an IC50 at CDK9/CycT1 [7] (setting [9]) of 0.0729 µM. The half-maximal inhibitory concentration (IC50) in data set [8] was in the range of 1 to 10 µM.
